According to the NIST ThermoML archive (doi:10.1016/j.jct.2016.02.009):

Assay: molar heat capacity at constant pressure
Details: 101.33 kPa, Crystal 2, Small (less than 1 g) adiabatic calorimetry

CCCCCCCCCCCCCCCCn1cc[n+](C)c1.O=S(=O)([N-]S(=O)(=O)C(F)(F)F)C(F)(F)F
Details | molar heat capacity at constant pressure [J/K/mol]
5 K | 3.58
5.4 K | 4.43
5.7 K | 5.11
6.07 K | 6
6.51 K | 7.15
7.03 K | 8.58
7.55 K | 10.13
8.08 K | 11.79
8.61 K | 13.56
9.15 K | 15.43
9.69 K | 17.38
10 K | 18.51
10.24 K | 19.41
10.84 K | 21.73
11.53 K | 24.47
12.23 K | 27.33
12.92 K | 30.31
13.62 K | 33.36
14.33 K | 36.54
15 K | 39.66
15.04 K | 39.85
15.87 K | 43.67
16.8 K | 48.11
17.74 K | 52.48
18.67 K | 56.86
19.62 K | 61.3
20 K | 63.15
20.86 K | 67.23
22.4 K | 74.52
23.97 K | 81.98
25 K | 86.78
25.53 K | 89.27
27.13 K | 96.62
28.72 K | 103.9
30 K | 109.7
30.29 K | 111.1
32.02 K | 118.8
33.92 K | 126.8
35 K | 131.4
35.82 K | 134.8
37.72 K | 142.5
39.62 K | 150
40 K | 151.7
41.61 K | 158
43.71 K | 166.2
45 K | 171.3
45.8 K | 174.3
47.91 K | 182.4
50 K | 190
50.02 K | 190.2
52.13 K | 197.8
54.23 K | 205.2
56.35 K | 212.4
58.48 K | 219.5
60 K | 224.6
60.6 K | 226.5
62.72 K | 233.3
64.85 K | 240.1
66.98 K | 246.6
69.1 K | 253.2
70 K | 255.9
71.33 K | 259.9
73.67 K | 266.6
76.02 K | 273.4
78.38 K | 280
80 K | 284.5
80.57 K | 286.3
80.73 K | 286.6
82.48 K | 291.2
83.09 K | 292.8
84.4 K | 296.1
86.33 K | 301.2
88.27 K | 306.3
90 K | 310.8
90.22 K | 311.2
92.18 K | 316.2
94.15 K | 321.1
96.13 K | 326.1
98.11 K | 331
100 K | 335.5
100.1 K | 335.8
102.15 K | 340.8
104.27 K | 345.7
106.4 K | 350.6
108.54 K | 355.4
110 K | 358.8
110.68 K | 360.3
112.83 K | 365
114.99 K | 369.8
117.15 K | 374.5
119.31 K | 379.2
120 K | 380.5
121.48 K | 383.7
123.65 K | 388.2
125.82 K | 392.8
128 K | 397.3
130 K | 401.4
130.17 K | 401.7
132.35 K | 406.2
134.53 K | 410.6
136.71 K | 415
138.9 K | 419.3
140 K | 421.7
141.08 K | 423.7
143.27 K | 428.1
145.46 K | 432.5
147.65 K | 436.9
149.84 K | 441.2
150 K | 441.5
152.03 K | 445.6
154.22 K | 449.8
156.4 K | 454.1
158.59 K | 458.5
160 K | 461.2
160.78 K | 462.8
162.97 K | 467.2
165.16 K | 471.4
167.34 K | 475.7
169.53 K | 479.8
170 K | 480.8
171.71 K | 484.1
173.9 K | 488.4
176.08 K | 492.8
178.26 K | 497.1
180 K | 500.5
180.45 K | 501.5
182.63 K | 505.9
184.82 K | 510.1
187 K | 514.3
189.17 K | 518.6
190 K | 520.4
191.35 K | 523.1
193.52 K | 527.5
195.69 K | 531.7
197.86 K | 536.3
200 K | 540.8
200.02 K | 540.9
202.25 K | 545.6
204.54 K | 550.5
206.82 K | 555.5
209.11 K | 560.4
210 K | 562.3
211.39 K | 565.4
213.67 K | 570.5
215.95 K | 575.6
218.21 K | 580.9
220 K | 585
220.48 K | 586.3
222.74 K | 591.8
225 K | 597.1
227.25 K | 602.4
229.5 K | 607.7
230 K | 609.3
231.74 K | 613.5
233.97 K | 619.4
236.21 K | 625.3
238.43 K | 631.2
